In article PMC4827351 (Chemical Science, 2015):

Tests used:
[1] = test system: Escherichia coli ATCC 25922; test: Antimicrobial activity assay (CFU counting); assay type: cell-based; conditions: 50 µM peptide, 1 h, 37 °C, 10 mM sodium phosphate buffer containing 1% v/v TSB, n = 3
Method: (§1) The assays were performed according to a literature procedure.[15] Briefly, a 90 μL aliquot of the diluted bacterial culture was added to each well and then to each well was added 10 μL of a 10× concentrated aqueous peptide solution (500 μM) or sterile Milli-Q water as a no-peptide control. The plate was incubated for 1 h (37 °C, 150 rpm). The serial dilution for CFU counting was conducted as previously reported.[15] These assays were performed with at least two independently prepared and purified samples of each peptide and in three independent trials. The resulting averages and standard deviations are reported. […]
(§2) a bE. coliL. monocytogenes
(§3) Concentration (µM) Concentration (µM)
(§4) Figure S4. Antibacterial activity assays against E. coli ATCC 25922 and L. monocytogenes ATCC 19115. The bacteria were treated with 50 µM of each peptide for 1 h at 37 ° C in 10 mM sodium phosphate buffer containing 1% v/v TSB (mean ± SDM, n = 3). An asterisk indicates no […]
(§5) Retention Time (min) Retention Time (min)
(§6) Figure S5. In vitro trypsin-catalyzed proteolysis of proHD6. Analytical HPLC traces of trypsin-treated (a) proHD6 or (b) mature HD6 (30 µM x 80 µL) at indicated time points. Absorbance at 220 nm was monitored with a reference wavelength of 500 nm. Method: 10–60% B over 30 min

[2] = test system: Listeria monocytogenes ATCC 19115; test: Antimicrobial activity assay (CFU counting); assay type: cell-based; conditions: 50 µM peptide, 1 h, 37 °C, 10 mM sodium phosphate buffer containing 1% v/v TSB, n = 3
Method: as §1, §2, §3, §4, §5, §6

[3] = test system: L. monocytogenes ATCC 19115; test: Cuvette-based bacterial agglutination assay; assay type: cell-based, Listeria monocytogenes; conditions: n = 3
Text: (§7) We previously reported a simple cuvette-based in vitro agglutination assay that enables time-dependent monitoring of agglutination of viable bacteria by HD6.[15] We employed this assay to further characterize the trypsin-dependent activity of proHD6 on cultured bacterial cells (Fig. 4a and b). […] In these assays, we defined the “supernatant” as the culture solution in the top portion of the cuvette and the “re-suspension” as the mixture that results from agitating the entire culture after the 6 h incubation period.[15] We observed an ≈1.5-fold log reduction in CFU mL^–1 for the “supernatant” from cultures treated with combination of trypsin and proHD6 relative to the no-peptide control (Fig. 4c). Following “re-suspension”, the total CFU mL^–1 in the cuvette was indistinguishable from that of either the untreated control culture or the bacterial culture treated with proHD6.
(§8) Fig. 4 Bacterial agglutination assays for native and cleaved proHD6. (a) Agglutination of E. coli ATCC 25922 and L. monocytogenes ATCC 19115 in 50% MHB treated with proHD6 in the absence and presence of 0.4 μM trypsin or HD6 (control). (b) Representative images of cuvettes containing E. coli ATCC 25922 or L. monocytogenes ATCC 19115 after incubation with 20 μM peptides for 2 h at room temperature. (c) Plots of colony forming units (CFU mL^–1) of E. coli ATCC 25922 and L. monocytogenes ATCC 19115 after treatment with 20 μM peptides for 6 h (mean ± SDM, n = 3). Supernatant is defined as the clarified medium solution in the top portion of the culture and resuspension is defined as the mixture after thoroughly agitating the heterogeneous solution.
(§9) Stock solutions (50 μL) of HD6 and proHD6 (0, 50, 100, and 200 μM; 10× concentrations) were prepared in sterile Milli-Q water. If trypsin was required, aliquots of a 1 mg mL^–1 stock solution of TPCK-treated trypsin (Worthington) prepared in sterile Milli-Q water were added to solutions of proHD6 to afford a final trypsin concentration of 0.01 mg mL^–1. The assays were then conducted following the reported procedure.[15] […]

E. coli ATCC 25922 = test: Cuvette-based bacterial agglutination assay; assay type: cell-based, Escherichia coli; conditions: n = 3
Text: as §7, §8, §9

[4] = 20 µM proHD6 + trypsin, 6 h, entire culture agitated
[5] = proHD6 + 0.4 µM (0.01 mg/mL) trypsin, 10^8 CFU mL^-1, 50% MHB, room temperature
[6] = proHD6 up to 20 µM, no trypsin, 10^8 CFU mL^-1, 50% MHB, 6 h, room temperature

## EPLQAEDDPLQAKAYEADAQEQRGANDQDFAVSFAEDASSSLRALGSTRAFTCHCRRSCYSTEYSYGTCTVMGINHRFCCL (disulfide (positions not given here)) [proHD6, 81-residue propeptide of human α-defensin 6, recombinant, from His6-SUMO-proHD6]
[1]
  antibacterial activity: does not exhibit antibacterial activity
[2]
  antibacterial activity: does not exhibit antibacterial activity
[3]; [4]
  total CFU mL^-1 after re-suspension versus untreated control culture or culture treated with proHD6: indistinguishable
[3]; [5]
  agglutination of bacterial culture in cuvette, with trypsin: bacterial agglutination and sedimentation occurred
[3]; [6]
  agglutination of bacterial culture in cuvette: remained homogeneous
E. coli ATCC 25922; [4]
  total CFU mL^-1 after re-suspension versus untreated control culture or culture treated with proHD6: indistinguishable
E. coli ATCC 25922; [5]
  agglutination of bacterial culture in cuvette, with trypsin: bacterial agglutination and sedimentation occurred
E. coli ATCC 25922; [6]
  agglutination of bacterial culture in cuvette: remained homogeneous
